Data on eight molecules can be found in ChEMBL document CHEMBL1122946, “Folate antagonists. 21. Synthesis and antimalarial properties of 2,4-diamino-6-(benzylamino)pyrido[3,2-d]pyrimidines” (1985).

For assay [1], the system named is Mus musculus. Nature of the assay: Mean survival time against trophozoite induced Plasmodium berghei in mice minus control was evaluated at a dose 640 mg/kg. Type of assay: functional.
Assay [2] relates to Mus musculus. Nature of the assay: Mean survival time against trophozoite induced Plasmodium berghei in mice minus control was evaluated at a dose 160 mg/kg. Format: functional.
The test system of assay [3] is Mus musculus. Nature of the assay: Mean survival time against trophozoite induced Plasmodium berghei in mice minus control was evaluated at a dose 40 mg/kg. Type of assay: functional.
For assay [4], the system named is Mus musculus. Nature of the assay: Mean survival time against trophozoite induced Plasmodium berghei in mice minus control was evaluated at a dose 640 mg/kg; 5 toxic death occurred out of 5 animals on days 2-5 after injection. Format: functional, organism-based. Further details: dose 640 mg/kg.
The subject of assay [5] is Mus musculus. Nature of the assay: Mean survival time against trophozoite induced Plasmodium berghei in mice minus control was evaluated at a dose 1.25 mg/kg. Format: functional.
Assay [6] has as its system Mus musculus. Nature of the assay: Mean survival time against trophozoite induced Plasmodium berghei in mice minus control was evaluated at a dose 20 mg/kg; 4 survived out of 10 animals at 60 days postinjection. Type of assay: functional, organism-based. The arrangement: dose 20 mg/kg.
In assay [7] the test system is Mus musculus. Nature of the assay: Mean survival time against trophozoite induced Plasmodium berghei in mice minus control was evaluated at a dose 160 mg/kg; 10 survived out of 10 animals at 60 days postinjection. The arrangement: dose 160 mg/kg. Type of assay: functional, organism-based.
In assay [8] the test system is Mus musculus. Nature of the assay: Mean survival time against trophozoite induced Plasmodium berghei in mice minus control was evaluated at a dose 640 mg/kg; 10 survived out of 10 animals at 60 days postinjection. Format: functional, organism-based. The arrangement: dose 640 mg/kg.
The subject of assay [9] is Mus musculus. Nature of the assay: Mean survival time against trophozoite induced Plasmodium berghei in mice minus control was evaluated at a dose 2.5 mg/kg. Type of assay: functional.
Assay [10] deals with Mus musculus. Nature of the assay: Mean survival time against trophozoite induced Plasmodium berghei in mice minus control was evaluated at a dose 5 mg/kg. Type of assay: functional.
Assay [11] has as its system Mus musculus. Nature of the assay: Mean survival time against trophozoite induced Plasmodium berghei in mice minus control was evaluated at a dose 40 mg/kg; 6 survived out of 15 animals at 60 days postinjection. Type of assay: functional, organism-based. The arrangement: dose 40 mg/kg.
The subject of assay [12] is Mus musculus. Nature of the assay: Mean survival time against trophozoite induced Plasmodium berghei in mice minus control was evaluated at a dose 320 mg/kg; 5 survived out of 10 animals at 60 days postinjection. Type of assay: functional, organism-based. The arrangement: dose 320 mg/kg.
Assay [13] concerns Mus musculus. Nature of the assay: Mean survival time against trophozoite induced Plasmodium berghei in mice minus control was evaluated at a dose 80 mg/kg; 5 survived out of 5 animals at 60 days postinjection. Type of assay: functional, organism-based. The arrangement: dose 80 mg/kg.
The subject of assay [14] is Mus musculus. Nature of the assay: Mean survival time against trophozoite induced Plasmodium berghei in mice minus control was evaluated at a dose 10 mg/kg. Type of assay: functional.
The test system of assay [15] is Mus musculus. Nature of the assay: Mean survival time against trophozoite induced Plasmodium berghei in mice minus control was evaluated at a dose 80 mg/kg. Format: functional.
In assay [16] the test system is Mus musculus. Nature of the assay: Mean survival time against trophozoite induced Plasmodium berghei in mice minus control was evaluated at a dose 320 mg/kg; 2 survived out of 5 animals at 60 days postinjection. Further details: dose 320 mg/kg. Format: functional, organism-based.
Assay [17] relates to Mus musculus. Nature of the assay: Mean survival time against trophozoite induced Plasmodium berghei in mice minus control was evaluated at a dose 20 mg/kg. Type of assay: functional.
Assay [18] deals with Mus musculus. Nature of the assay: Mean survival time against trophozoite induced Plasmodium berghei in mice minus control was evaluated at a dose 160 mg/kg; 4 survived out of 10 animals at 60 days postinjection. Type of assay: functional, organism-based. The arrangement: dose 160 mg/kg.
In assay [19] the test system is Mus musculus. Nature of the assay: Mean survival time against trophozoite induced Plasmodium berghei in mice minus control was evaluated at a dose 640 mg/kg; 7 survived out of 10 animals at 60 days postinjection. Type of assay: functional, organism-based. The arrangement: dose 640 mg/kg.
Assay [20] concerns Mus musculus. Nature of the assay: Mean survival time against trophozoite induced Plasmodium berghei in mice minus control was evaluated at a dose 320 mg/kg; 3 survived out of 5 animals at 60 days postinjection. Format: functional, organism-based. Further details: dose 320 mg/kg.
Assay [21] relates to Mus musculus. Nature of the assay: Mean survival time against trophozoite induced Plasmodium berghei in mice minus control was evaluated at a dose 160 mg/kg; 6 survived out of 15 animals at 60 days postinjection. Type of assay: functional, organism-based. The arrangement: dose 160 mg/kg.
The test system of assay [22] is Mus musculus. Nature of the assay: Mean survival time against trophozoite induced Plasmodium berghei in mice minus control was evaluated at a dose 80 mg/kg; 1 survived out of 5 animals at 60 days postinjection. Format: functional, organism-based. The arrangement: dose 80 mg/kg.
Assay [23] concerns Mus musculus. Nature of the assay: Mean survival time against trophozoite induced Plasmodium berghei in mice minus control was evaluated at a dose 640 mg/kg; 9 survived out of 15 animals at 60 days postinjection. Further details: dose 640 mg/kg. Format: functional, organism-based.
For assay [24], the system named is Mus musculus. Nature of the assay: Mean survival time against trophozoite induced Plasmodium berghei in mice minus control was evaluated at a dose 320 mg/kg; 5 survived out of 5 animals at 60 days postinjection. Format: functional, organism-based. The arrangement: dose 320 mg/kg.
Assay [25] deals with Mus musculus. Nature of the assay: Mean survival time against trophozoite induced Plasmodium berghei in mice minus control was evaluated at a dose 20 mg/kg; 8 survived out of 10 animals at 60 days postinjection. Format: functional, organism-based. Further details: dose 20 mg/kg.
Assay [26] has as its system Mus musculus. Nature of the assay: Mean survival time against trophozoite induced Plasmodium berghei in mice minus control was evaluated at a dose 40 mg/kg; 10 survived out of 10 animals at 60 days postinjection. Format: functional, organism-based. Further details: dose 40 mg/kg.
Assay [27] relates to Mus musculus. Nature of the assay: Mean survival time against trophozoite induced Plasmodium berghei in mice minus control was evaluated at a dose 160 mg/kg; 5 survived out of 5 animals at 60 days postinjection. Type of assay: functional, organism-based. The arrangement: dose 160 mg/kg.
Assay [28] concerns Mus musculus. Nature of the assay: Mean survival time against trophozoite induced Plasmodium berghei in mice minus control was evaluated at a dose 80 mg/kg; 3 cured at 60 days postinjection. Format: functional, organism-based. The arrangement: dose 80 mg/kg.
Assay [29] concerns Mus musculus. Nature of the assay: Mean survival time against trophozoite induced Plasmodium berghei in mice minus control was evaluated at a dose 640 mg/kg; 1 cured and 2 toxic death. Type of assay: functional, organism-based. Further details: dose 640 mg/kg.
Assay [30] relates to Mus musculus. Nature of the assay: Mean survival time against trophozoite induced Plasmodium berghei in mice minus control was evaluated at a dose 40 mg/kg; 1 cured at 60 days postinjection. Type of assay: functional, organism-based. Further details: dose 40 mg/kg.
Assay [31] concerns Mus musculus. Nature of the assay: Mean survival time against trophozoite induced Plasmodium berghei in mice minus control was evaluated at a dose 320 mg/kg; 2 cured and 3 toxic death. Type of assay: functional, organism-based. The arrangement: dose 320 mg/kg.
The subject of assay [32] is Mus musculus. Nature of the assay: Mean survival time against trophozoite induced Plasmodium berghei in mice minus control was evaluated at a dose 160 mg/kg; 5 cured at 60 days postinjection. The arrangement: dose 160 mg/kg. Format: functional, organism-based.

Take `CCN(Cc1ccc(Cl)cc1)c1ccc2nc(N)nc(N)c2n1`: the “Delta MST” value with Mus musculus [1] was determined as 1.1 days; in the assay on Mus musculus [2], 0.9 days; with Mus musculus [3], 0.9 days.
Consider `Nc1nc(N)c2nc(N3CCCCC3)ccc2n1`, for which the figures for the “Delta MST” value in the assay with Mus musculus [4], in the assay with Mus musculus [2] and in the assay with Mus musculus [3] were “Toxic Deaths 5/5”, 0.4 days and 0.3 days, respectively.
Consider `Nc1nc(N)c2nc(N(C=O)Cc3ccc(Cl)c(Cl)c3)ccc2n1`, for which the “Delta MST” value in the assay with Mus musculus [5] is 1.9 days; in the assay with Mus musculus [6] it was “Survivals 4/10”; in the assay with Mus musculus [7], “Survivals 10/10”; in the assay with Mus musculus [8], “Survivals 10/10”; in the assay on Mus musculus [9], 5.3 days; in the assay on Mus musculus [10], 14.1 days. The “Delta MST” value was “Survivals 6/15” in the assay on Mus musculus [11], “Survivals 5/10” in the assay on Mus musculus [12], “Survivals 5/5” in the assay with Mus musculus [13] and 16.3 days in the assay with Mus musculus [14].
On to `Nc1nc(N)c2nc(N3CCCCC3Cc3ccc(Cl)cc3)ccc2n1` (stereo not given), for which the “Delta MST” value is 9.1 days in the assay with Mus musculus [15]; “Survivals 2/5” with Mus musculus [16]; 2.9 days with Mus musculus [17]; “Survivals 4/10” in the assay with Mus musculus [18]; “Survivals 7/10” in the assay with Mus musculus [19]; 5.1 days in the assay with Mus musculus [3].
Regarding `CN(Cc1cccc(Br)c1)c1ccc2nc(N)nc(N)c2n1`, the “Delta MST” value is “Survivals 3/5” with Mus musculus [20]; 9.1 days with Mus musculus [17]; “Survivals 6/15” in the assay with Mus musculus [21]; “Survivals 1/5” with Mus musculus [22]; 9.8 days in the assay with Mus musculus [3]; “Survivals 9/15” in the assay with Mus musculus [23].
Take `CN(Cc1ccc(Cl)c(Cl)c1)c1ccc2nc(N)nc(N)c2n1`: the “Delta MST” value with Mus musculus [5] is 2.9 days; in the assay on Mus musculus [24] it was “Survivals 5/5”; in the assay with Mus musculus [25], “Survivals 8/10”; in the assay with Mus musculus [26], “Survivals 10/10”; with Mus musculus [9], 4.3 days; in the assay on Mus musculus [10], 9.1 days. Besides, the entries for the “Delta MST” value in the assay on Mus musculus [27], in the assay with Mus musculus [13] and with Mus musculus [14] were “Survivals 5/5”, “Survivals 5/5” and 11.9 days, respectively.
On to `CCc1nc(N)nc(N)c1-c1ccc(Cl)cc1` [PYRIMETHAMINE], for which the “Delta MST” value in the assay on Mus musculus [5] was 3.1 days; with Mus musculus [17], 7.7 days; in the assay with Mus musculus [28], “Survivals 3”; in the assay with Mus musculus [29], “Survivals 1 Toxic Deaths 2”; in the assay with Mus musculus [9], 4.7 days; in the assay on Mus musculus [10] it was 5.3 days. Moreover, the “Delta MST” value in the assay on Mus musculus [30] is “Survivals 1”; with Mus musculus [31], “Survivals 2 Toxic deaths 3”; in the assay on Mus musculus [14], 6.1 days; in the assay with Mus musculus [32], “Survivals 5”.
Take `CC(c1ccc(Cl)c(Cl)c1)N(C)c1ccc2nc(N)nc(N)c2n1` (stereo not given): the “Delta MST” value with Mus musculus [1] stood at 3.9 days; with Mus musculus [2], 2.3 days; in the assay with Mus musculus [3], 1.7 days.
